From patent US6489295B1, “Antagonists of intestinotrophic GLP-2 peptides” (1149336 Ontario Inc., priority 1996, dated 2002)
Non-standard residues stand in square brackets, D forms with d. Residues, ends and D or L forms follow the SMILES beside them. No end group written: not given here. pY = N[C@@H](Cc1ccc(OP(=O)(O)O)cc1)C(=O)O

Test system: intestinotrophic activity of rat GLP-2
Experiment: GLP-2 antagonist assessment by co-administration into mice with GLP-2 (small bowel weight)
Assay type: in vivo
Details: CD1 female mice, antagonist to GLP-2 ratio 4:1 by weight (12.5 μg/2.5 μg rat GLP-2) s.c. twice a day, 10-14 days
Method: The candidate peptide antagonist and rat GLP-2 were dissolved in PBS to give a final ratio of 25 μg antagonist/2.5 μg GLP-2 per 0.5 ml phosphate buffered saline solution (for a 10:1 ratio), or […] antagonist/2.5 μg GLP-2 per 0.5 ml phosphate buffered saline solution (for a 4:1 ratio), as indicated. The antagonist/GLP-2 mixture was administered to 6-8 week old CD1 female mice subcutaneously, with the amount of peptide injected being 25 μg antagonist/2.5 μg GLP-2 in 0.5 ml twice a day, or 12.5 μg antagonist/2.5 μg GLP-2 in 0.5 ml twice a day. After 10-14 days, peptide-injected and control (saline-injected) mice were sacrificed, and small bowel weights were determined.

Compound	% Antagonism [%]
ratGLP-2(3-33)	33

Same assay, conditions: CD1 female mice, antagonist to GLP-2 ratio 10:1 by weight (25 μg/2.5 μg rat GLP-2) s.c. twice a day, 10-14 days

Compound	% Antagonism [%]
ratGLP-2(4-33)	32
ratGLP-2(5-33)	16
ratGLP-2(2-33)	42

Biological target: T1, human placental DPP-IV (Homo sapiens, UniProt P27487)
Experiment: Assay for resistance to dipeptidyl peptidase IV
Details: 24 hours at 37° C., RP-HPLC
Method: To perform the assay, 2.5 microliters (μl) of a solution of human placental DPP-IV (Calbiochem, La Jolla, Calif., cat. # 317624) containing 0.125 milliunits (mU) of enzyme in 50% glycerol, mM Tris, pH 7.8, EDTA and 0.02% NaN3 was added to 50 μl of a solution of the test peptide prepared at a concentration of 0.2 mg/ml in PBS at pH 7.4. The mixture was incubated at 37° C. in a circulating water bath for 24 hours. The incubation was quenched by the addition of 50 μl of a solution of diprotin A prepared at a concentration of 4 mg/ml in PBS. Each peptide was tested in duplicate.
Each sample was analyzed by reverse-phase (RP) HPLC as follows: 90 μl of the quenched incubation mixture was injected onto a Rainin Dynamax 300 Å, C18, 5 micron, 4.6×250 millimeter column. The samples were eluted with 0.1% trifluoroacetic acid (TFA) in water modified with 0.1% acetonitrile using a linear gradient and a flow rate of 1 ml per minute. Sample components were detected at 214 nanometers (nm). The extent of cleavage was measured by relative integration of the peak corresponding to the cleavage product compared to that of the remaining undigested parent peptide.

T1 sequence (P27487 whole entry): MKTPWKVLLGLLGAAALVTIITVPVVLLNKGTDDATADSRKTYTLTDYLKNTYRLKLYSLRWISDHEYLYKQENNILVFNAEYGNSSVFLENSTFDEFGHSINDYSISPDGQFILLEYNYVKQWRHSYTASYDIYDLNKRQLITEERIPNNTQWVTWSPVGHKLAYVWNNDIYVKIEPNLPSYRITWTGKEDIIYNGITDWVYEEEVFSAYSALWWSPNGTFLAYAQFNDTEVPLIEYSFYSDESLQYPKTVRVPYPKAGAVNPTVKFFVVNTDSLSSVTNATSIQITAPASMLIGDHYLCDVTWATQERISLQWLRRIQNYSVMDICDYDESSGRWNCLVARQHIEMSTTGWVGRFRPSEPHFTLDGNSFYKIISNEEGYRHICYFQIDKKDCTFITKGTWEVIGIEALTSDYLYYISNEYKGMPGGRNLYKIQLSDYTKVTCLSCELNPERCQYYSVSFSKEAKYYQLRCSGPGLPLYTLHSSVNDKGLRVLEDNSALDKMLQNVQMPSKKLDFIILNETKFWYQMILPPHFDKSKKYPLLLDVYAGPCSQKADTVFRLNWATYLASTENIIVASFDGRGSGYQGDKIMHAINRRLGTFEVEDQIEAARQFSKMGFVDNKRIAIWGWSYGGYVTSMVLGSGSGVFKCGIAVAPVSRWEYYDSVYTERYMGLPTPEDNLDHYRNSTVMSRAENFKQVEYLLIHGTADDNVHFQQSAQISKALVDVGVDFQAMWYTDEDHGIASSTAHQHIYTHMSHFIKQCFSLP

Compound	cleavage products detected after DPP-IV incubation
[D-Ala^2]ratGLP-2	No cleavage products were detected
[Gly^2]ratGLP-2	No cleavage products were detected

Biological target: T1, human placental DPP-IV
Experiment: not given
Details: not given

Compound	cleavage products detected after DPP-IV incubation
HGDGSFSDEMNTILDNLAARDAINWLIQTKITD [[Gly^2, Ala^22]GLP-2]	No cleavage products were detected
HGDGSFSDEMNTILDNLAARDFINWLIQTKIAD [[Gly^2, Ala^32]GLP-2]	No cleavage products were detected
HWDGSFSDEMNTILDNLAARDFINWLIQTKITD [[Trp^2]GLP-2]	No cleavage products were detected
HGDGSFSDEMNTILDNLAARDFINWLIQAKITD [[Gly^2, Ala^29]GLP-2]	No cleavage products were detected
CC[C@H](C)[C@H](NC(=O)[C@H](Cc1ccccc1)NC(=O)[C@H](CC(=O)O)NC(=O)[C@H](CCCNC(=N)N)NC(=O)[C@H](C)NC(=O)[C@H](C)NC(=O)[C@H](CC(C)C)NC(=O)[C@H](CC(N)=O)NC(=O)[C@H](CC(=O)O)NC(=O)[C@H](CC(C)C)NC(=O)[C@@H](NC(=O)[C@@H](NC(=O)[C@H](CC(N)=O)NC(=O)[C@H](CCSC)NC(=O)[C@H](CCC(=O)O)NC(=O)[C@H](CC(=O)O)NC(=O)[C@H](CO)NC(=O)[C@H](Cc1ccccc1)NC(=O)[C@H](CO)NC(=O)CNC(=O)[C@H](CC(=O)O)NC(=O)[C@H](Cc1ccc(OP(=O)(O)O)cc1)NC(=O)[C@@H](N)Cc1c[nH]cn1)[C@@H](C)O)[C@@H](C)CC)C(=O)N[C@@H](CC(N)=O)C(=O)N[C@@H](Cc1c[nH]c2ccccc12)C(=O)N[C@@H](CC(C)C)C(=O)N[C@H](C(=O)N[C@@H](CCC(N)=O)C(=O)N[C@H](C(=O)N[C@@H](CCCCN)C(=O)N[C@H](C(=O)N[C@H](C(=O)N[C@@H](CC(=O)O)C(=O)O)[C@@H](C)O)[C@@H](C)CC)[C@@H](C)O)[C@@H](C)CC [[PO3-Tyr^2]GLP-2] (H-H[pY]DGSFSDEMNTILDNLAARDFINWLIQTKITD-OH; N-terminus and C-terminus assumed)	No cleavage products were detected

The next lines start with the values.

cleavage products detected after DPP-IV incubation	Compound
No cleavage products were detected	HCDGSFSDEMNTILDNLAARDFINWLIQTKITD [[Cys^2]GLP-2]
No cleavage products were detected	HGDGSFSDEMNTILDNLAARDFINWLIQTKITA [[Gly^2, Ala^33]GLP-2]
No cleavage products were detected	HGDGSFSDEMNTILANLAARDFINWLIQTKITD [[Gly^2, Ala^15]GLP-2]
No cleavage products were detected	HEDGSFSDEMNTILDNLAARDFINWLIQTKITD [[Glu^2]GLP-2]
No cleavage products were detected	HRDGSFSDEMNTILDNLAARDFINWLIQTKITD [[Arg^2]GLP-2]
No cleavage products were detected	HLDGSFSDEMNTILDNLAARDFINWLIQTKITD [[Leu^2]GLP-2]
